For assay [1], the system named is Enterococcus. Nature of the assay: Antibacterial activity against vancomycin resistant Enterococcus ATCC 51299. It is filed as functional.
In assay [2] the test system is Enterococcus faecalis. Nature of the assay: Antibacterial activity against vancomycin susceptible Enterococcus faecalis ATCC 29212. It is filed as functional.
Assay [3] relates to Staphylococcus aureus. Description: Antibacterial activity against Methicillin-resistant Staphylococcus aureus ATCC 33591. It is filed as functional, organism-based.
For assay [4], the system named is Staphylococcus aureus. Nature of the assay: Antibacterial activity against Staphylococcus aureus ATCC 25923 by CLSI-based broth microdilution method. It is filed as functional. In general terms: In broth dilution the organism is exposed to a series of concentrations in liquid medium.
Assay [5] concerns Staphylococcus aureus. Description: Antibacterial activity against methicillin-resistant Staphylococcus aureus ATCC 33591 by broth microdilution method. Format: functional.
The test system of assay [6] is Staphylococcus aureus. Description: Antibacterial activity against methicillin-sensitive Staphylococcus aureus ATCC 29213 by broth microdilution method. It is filed as functional.
In assay [7] the test system is Staphylococcus aureus. Nature of the assay: Antibacterial activity against Methicillin-resistant Staphylococcus aureus N315 incubated for 24 hrs by two fold serial dilution method. It is filed as functional.
Assay [8] deals with Staphylococcus aureus. Description: Antibacterial activity against Staphylococcus aureus ATCC 25923 incubated for 24 hrs by two fold serial dilution method. It is filed as functional.
The test system of assay [9] is Staphylococcus aureus. Nature of the assay: Resistance index, ratio of MIC for antibacterial activity against Staphylococcus aureus ATCC 43300 incubated for 16 to 18 hrs by CLSI based assay to MIC for antibacterial activity against Staphylococcus aureus DSM 20231 incubated for 16 to 18 hrs by CLSI based assay. To be noted: time 16-18 hrs. It is filed as functional.

For assay [10], the system named is Staphylococcus aureus. Nature of the assay: Antibacterial activity against methicillin-resistant Staphylococcus aureus ATCC 43300 incubated for 16 to 18 hrs by CLSI based assay. It is filed as functional. As to conditions: time 16-18 hrs.
The test system of assay [11] is Staphylococcus aureus. Description: Antibiofilm activity against methicillin-resistant Staphylococcus aureus ATCC BAA-44 incubated for 24 hrs by crystal violet-staining based assay. It is filed as functional, organism-based. To be noted: ATCC BAA-44, 24 h.
Assay [12] concerns Staphylococcus aureus. Description: Potentiation of oxacillin-induced antibacterial activity against methicillin-resistant Staphylococcus aureus ATCC BAA-44 assessed as reduction in oxacillin MIC preincubated for 30 mins followed by oxacillin addition and measured after 16 hrs by broth microdilution method. It is filed as functional. As to conditions: time 16.5 hrs.

pIC50: −log10 of the molar value. Values after ≈ are worked out from the molar mass of the structure shown.

The values below come from ChEMBL document CHEMBL4706534, “1,2,3-Triazole-containing hybrids with potential antibacterial activity against methicillin-resistant Staphylococcus aureus (MRSA)” (Eur J Med Chem, 2020).

The MIC is the least concentration at which growth counts as inhibited. A lower MIC goes with inhibition by little substance. As a reminder, the pIC50 is the negative decadic logarithm of the IC50, by convention in mol/L. Low readings indicate a high IC50, high ones a low IC50.

For `CN[C@H](CC(C)C)C(=O)N[C@@H]1Cc2ccc(c(Cl)c2)Oc2cc3cc(c2O[C@@H]2O[C@H](CO)[C@@H](O)[C@H](O)[C@H]2O[C@H]2C[C@](C)(N)[C@H](O)[C@H](C)O2)Oc2ccc(cc2Cl)[C@@H](O)[C@@H]2NC(=O)[C@H](NC(=O)[C@@H]3NC(=O)[C@H](CC(=O)O)NC1=O)c1ccc(O)c(c1)-c1c(O)cc(O)cc1[C@H](C(=O)NCCOCCOCCOCCn1cc(CCNC(=O)[C@@H]3NC(=O)[C@H]4NC(=O)[C@H](NC(=O)[C@@H]5NC(=O)[C@H](CC(=O)O)NC(=O)[C@H](NC(=O)[C@@H](CC(C)C)NC)Cc6ccc(c(Cl)c6)Oc6cc5cc(c6O[C@@H]5O[C@H](CO)[C@@H](O)[C@H](O)[C@H]5O[C@H]5C[C@](C)(N)[C@H](O)[C@H](C)O5)Oc5ccc(cc5Cl)[C@H]4O)c4ccc(O)c(c4)-c4c(O)cc(O)cc43)nn1)NC2=O`, the MIC in assay [1], in [2] and in assay [3] was 0.5 µg/mL (≈ 0.16 µM) in each case.
In turn, `CC1(C)S[C@@H]2[C@H](NC(=O)[C@H](N)c3ccccc3)C(=O)N2[C@H]1C(=O)O` [AMPICILLIN] yielded an MIC in assay [4] of 4 µg/mL (≈ 11.4 µM).
Consider `CC(=O)N[C@H]1[C@H](O[C@@H]2c3ccc(c(Cl)c3)Oc3cc4cc(c3O)Oc3ccc(cc3Cl)C[C@H]3NC(=O)[C@H](n5cc(COC[C@H]6O[C@@H]7OC(C)(C)O[C@@H]7[C@H]7OC(C)(C)O[C@H]76)nn5)c5ccc(O)c(c5)Oc5cc(O)cc(c5)[C@H](NC3=O)C(=O)N[C@H]4C(=O)N[C@H]3C(=O)N[C@@H]2C(=O)N[C@@H](C(=O)O)c2cc(O)cc(O)c2-c2cc3ccc2O)O[C@H](CO)[C@@H](O)[C@@H]1O`, for which the MIC in assay [5] and in assay [6] was 0.5 µg/mL (≈ 0.29 µM) each time.
In the case of `CCCCCCCCOCc1cn([C@H]2C(=O)N[C@@H]3Cc4ccc(c(Cl)c4)Oc4cc5cc(c4O)Oc4ccc(cc4Cl)[C@@H](O[C@@H]4O[C@H](CO)[C@@H](O)[C@H](O)[C@H]4NC(C)=O)[C@@H]4NC(=O)[C@H](NC(=O)[C@@H]5NC(=O)[C@@H](NC3=O)c3cc(O)cc(c3)Oc3cc2ccc3O)c2ccc(O)c(c2)-c2c(O)cc(O)cc2[C@H](C(=O)O)NC4=O)nn1`, the MIC in [5] and in [6] was 0.5 µg/mL (≈ 0.313 µM) in each case.
As for `CN[C@H](CC(C)C)C(=O)N[C@@H]1Cc2ccc(c(Cl)c2)Oc2cc3cc(c2O[C@@H]2O[C@H](CO)[C@@H](O)[C@H](O)[C@H]2O[C@H]2C[C@](C)(N)[C@H](O)[C@H](C)O2)Oc2ccc(cc2Cl)[C@@H](O)[C@@H]2NC(=O)[C@H](NC(=O)[C@@H]3NC(=O)[C@H](CC(=O)O)NC1=O)c1ccc(O)c(c1)-c1c(O)cc(O)cc1[C@H](C(=O)NCCCc1cn(CCOCCOCCOCCNC(=O)[C@@H]3NC(=O)[C@H]4NC(=O)[C@H](NC(=O)[C@@H]5NC(=O)[C@H](CC(=O)O)NC(=O)[C@H](NC(=O)[C@@H](CC(C)C)NC)Cc6ccc(c(Cl)c6)Oc6cc5cc(c6O[C@@H]5O[C@H](CO)[C@@H](O)[C@H](O)[C@H]5O[C@H]5C[C@](C)(N)[C@H](O)[C@H](C)O5)Oc5ccc(cc5Cl)[C@H]4O)c4ccc(O)c(c4)-c4c(O)cc(O)cc43)nn1)NC2=O`, the MIC in [1], in [2] and in assay [3] was 0.5 µg/mL (≈ 0.16 µM) each time.
Regarding `CC(=O)N[C@H]1[C@H](O[C@@H]2c3ccc(c(Cl)c3)Oc3cc4cc(c3O)Oc3ccc(cc3Cl)C[C@H]3NC(=O)[C@H](n5cc(COc6ccccc6)nn5)c5ccc(O)c(c5)Oc5cc(O)cc(c5)[C@H](NC3=O)C(=O)N[C@H]4C(=O)N[C@H]3C(=O)N[C@@H]2C(=O)N[C@@H](C(=O)O)c2cc(O)cc(O)c2-c2cc3ccc2O)O[C@H](CO)[C@@H](O)[C@@H]1O`, the MIC in [5] and in assay [6] was 0.5 µg/mL (≈ 0.32 µM) in each case.
On to `O=c1c2ccc(Cl)cc2ncn1CC(O)Cn1nnc2ccccc21` (configuration not stated), for which the MIC in [7] and in assay [8] was not below 64 µg/mL in each case.
In the case of `CC(=O)N[C@H]1[C@H](O[C@@H]2c3ccc(c(Cl)c3)Oc3cc4cc(c3O)Oc3ccc(cc3Cl)C[C@H]3NC(=O)[C@H](n5cc(CO[C@H]6[C@@H](OCc7ccccc7)[C@@H](COCc7ccccc7)O[C@@H](O[C@H]7[C@H](OCc8ccccc8)[C@@H](OCc8ccccc8)[C@H](Sc8ccccc8)O[C@@H]7COCc7ccccc7)[C@@H]6OCc6ccccc6)nn5)c5ccc(O)c(c5)Oc5cc(O)cc(c5)[C@H](NC3=O)C(=O)N[C@H]4C(=O)N[C@H]3C(=O)N[C@@H]2C(=O)N[C@@H](C(=O)O)c2cc(O)cc(O)c2-c2cc3ccc2O)O[C@H](CO)[C@@H](O)[C@@H]1O`, the minimum inhibitory concentration (MIC) in [5] and in assay [6] was 32 µg/mL (≈ 13.1 µM) in each case.
As for `CN[C@H](CC(C)C)C(=O)N[C@@H]1Cc2ccc(c(Cl)c2)Oc2cc3cc(c2O[C@@H]2O[C@H](CO)[C@@H](O)[C@H](O)[C@H]2O[C@H]2C[C@](C)(N)[C@H](O)[C@H](C)O2)Oc2ccc(cc2Cl)[C@@H](O)[C@@H]2NC(=O)[C@H](NC(=O)[C@@H]3NC(=O)[C@H](CC(=O)O)NC1=O)c1ccc(O)c(c1)-c1c(O)cc(O)cc1[C@H](C(=O)NCCCCc1cn(CCOCCOCCOCCNC(=O)[C@@H]3NC(=O)[C@H]4NC(=O)[C@H](NC(=O)[C@@H]5NC(=O)[C@H](CC(=O)O)NC(=O)[C@H](NC(=O)[C@@H](CC(C)C)NC)Cc6ccc(c(Cl)c6)Oc6cc5cc(c6O[C@@H]5O[C@H](CO)[C@@H](O)[C@H](O)[C@H]5O[C@H]5C[C@](C)(N)[C@H](O)[C@H](C)O5)Oc5ccc(cc5Cl)[C@H]4O)c4ccc(O)c(c4)-c4c(O)cc(O)cc43)nn1)NC2=O`, the MIC in [1], in [2] and in assay [3] was 0.5 µg/mL (≈ 0.159 µM) each time.
Regarding `N=C(N)NCCC[C@H](NC(=O)[C@H](Cc1c[nH]c2ccccc12)NC(=O)[C@H](CCCNC(=N)N)NC(=O)[C@H](Cc1c[nH]c2ccccc12)NC(=O)[C@@H](N)CCCNC(=N)N)C(=O)N[C@@H](Cc1c[nH]c2ccccc12)C(=O)N[C@@H](CCCCn1cc(COc2cc(OCc3cn(CCCC[C@H](NC(=O)[C@H](Cc4c[nH]c5ccccc45)NC(=O)[C@H](CCCNC(=N)N)NC(=O)[C@H](Cc4c[nH]c5ccccc45)NC(=O)[C@H](CCCNC(=N)N)NC(=O)[C@H](Cc4c[nH]c5ccccc45)NC(=O)[C@@H](N)CCCNC(=N)N)C(N)=O)nn3)cc(OCc3cn(CCCC[C@H](NC(=O)[C@H](Cc4c[nH]c5ccccc45)NC(=O)[C@H](CCCNC(=N)N)NC(=O)[C@H](Cc4c[nH]c5ccccc45)NC(=O)[C@H](CCCNC(=N)N)NC(=O)[C@H](Cc4c[nH]c5ccccc45)NC(=O)[C@@H](N)CCCNC(=N)N)C(N)=O)nn3)c2)nn1)C(N)=O`, in assay [9], the Ratio was 0.5. Further, the lowest concentration to inhibit growth in [10] (MIC) was 2.7 µM (≈ 10.4 µg/mL).
As for `CN[C@H](CC(C)C)C(=O)N[C@@H]1Cc2ccc(c(Cl)c2)Oc2cc3cc(c2O[C@@H]2O[C@H](CO)[C@@H](O)[C@H](O)[C@H]2O[C@H]2C[C@](C)(N)[C@H](O)[C@H](C)O2)Oc2ccc(cc2Cl)[C@@H](O)[C@@H]2NC(=O)[C@H](NC(=O)[C@@H]3NC(=O)[C@H](CC(=O)O)NC1=O)c1ccc(O)c(c1)-c1c(O)cc(O)cc1[C@H](C(=O)NCCCCCc1cn(CCOCCOCCOCCNC(=O)[C@@H]3NC(=O)[C@H]4NC(=O)[C@H](NC(=O)[C@@H]5NC(=O)[C@H](CC(=O)O)NC(=O)[C@H](NC(=O)[C@@H](CC(C)C)NC)Cc6ccc(c(Cl)c6)Oc6cc5cc(c6O[C@@H]5O[C@H](CO)[C@@H](O)[C@H](O)[C@H]5O[C@H]5C[C@](C)(N)[C@H](O)[C@H](C)O5)Oc5ccc(cc5Cl)[C@H]4O)c4ccc(O)c(c4)-c4c(O)cc(O)cc43)nn1)NC2=O`, the MIC in [1], in assay [2] and in [3] was 0.5 µg/mL (≈ 0.158 µM) throughout.
Regarding `CCCCCCCCc1cn([C@H]2C(=O)N[C@@H]3Cc4ccc(c(Cl)c4)Oc4cc5cc(c4O)Oc4ccc(cc4Cl)[C@@H](O[C@@H]4O[C@H](CO)[C@@H](O)[C@H](O)[C@H]4NC(C)=O)[C@@H]4NC(=O)[C@H](NC(=O)[C@@H]5NC(=O)[C@@H](NC3=O)c3cc(O)cc(c3)Oc3cc2ccc3O)c2ccc(O)c(c2)-c2c(O)cc(O)cc2[C@H](C(=O)O)NC4=O)nn1`, the MIC in assay [5] and in assay [6] was 0.16 µg/mL (≈ 0.102 µM) each time.
On to `Cc1ccc2c(c1)nnn2CC(O)Cn1cnc2cc(Cl)ccc2c1=O` (configuration not stated), for which the MIC in assay [7] and in assay [8] was not below 64 µg/mL in each case.
Consider `Cc1ccc2c(c1)nnn2CC(O)Cn1cnc2cc(F)ccc2c1=O` (configuration not stated), for which the MIC in assay [7] and in [8] was not below 64 µg/mL in each case.
For the molecule `O=c1c2ccc(F)cc2ncn1CC(O)Cn1nnc2ccccc21` (configuration not stated), the MIC in assay [7] and in assay [8] was not below 64 µg/mL in each case.
With `CC(=O)N[C@H]1[C@H](O[C@@H]2c3ccc(c(Cl)c3)Oc3cc4cc(c3O)Oc3ccc(cc3Cl)C[C@H]3NC(=O)[C@H](n5cc(COc6cccc7ccccc67)nn5)c5ccc(O)c(c5)Oc5cc(O)cc(c5)[C@H](NC3=O)C(=O)N[C@H]4C(=O)N[C@H]3C(=O)N[C@@H]2C(=O)N[C@@H](C(=O)O)c2cc(O)cc(O)c2-c2cc3ccc2O)O[C@H](CO)[C@@H](O)[C@@H]1O`, the MIC in assay [5] and in assay [6] was 0.5 µg/mL (≈ 0.31 µM) throughout.
`COc1ccc(-c2[nH]c(N)nc2CCCCCc2cn(C/C(C)=C\c3ccccc3)nn2)cc1`: the negative logarithm of the IC50 (pIC50) in assay [11] was 5.87. In assay [12], the “fold change (FC)” value is 2.
